# Source: patent US20250082630A1, “METHODS OF TREATING BRAIN TUMOURS AND NEUROBLASTOMAS” (AstraZeneca AB, priority 2021, published 2025)
# System: BT245 H3K27M paediatric glioma cells
# Assay: Combination assay PARP inhibitor with ionizing radiation (colony formation)
# Assay type: cell-based
# Details: 0.9 Gy, multiple doses of the inhibitor
# Procedure: DMSO served as a vehicle control. […] Next, cells were fixed and stained using the Sulforhodamin B acid form (SRB) [Sigma, 341738-5g] reconstituted in 1% Acetic Acid as the stain is added straight after fixation without any washing step which limits cell detachment. Plates with stained colonies were scanned with the GelCount colony counter (Oxford OPTRONIX) at 600 dpi resolution. Colony formation was scored by quantifying the total optical density measured with ImageJ software, using a 24-well plate Region of Interest (ROI) mask (CFU, colony formation units). Data analysis was performed by normalisation on the vehicle treated of the respective plate set as =100. […] In the represented plots error bars are mean±SD.
smiles,measurement,value
"CNC(=O)c1ccc(N2CCN(Cc3ccc4nc(C)c(=O)[nH]c4c3F)CC2)c(F)n1 [Example 20, 6-fluoro-5-[4-[(5-fluoro-2-methyl-3-oxo-4H-quinoxalin-6-yl)methyl]piperazin-1-yl]-N-methyl-pyridine-2-carboxamide]",combination effect with ionizing radiation,enhanced combination benefit
